Counter-ions that a name gives are not always drawn.
Each molecule was assayed on Phosphorylated Ribosomal Protein S6 (RPS6) in THP-1 cells (assay: THP-1 RPS6 ELISA Assay). Conditions: Homo sapiens; Table A2; THP-1 cells, 10 nM MCP-1; read-out: PI3Kγ_THP1_RPS6_ELISA IC50.
Format: cell-based, Human
Method: To measure the Phosphorylated Ribosomal Protein S6 (RPS6) in cell lysates, THP-1 cells (Human Acute Monocytic Leukemia) are purchased from ATCC (Manassas, Va.) and maintained in RPMI with 10% FBS (Gibco/Life Technologies, Carlsbad, Calif.). For the assay, THP-1 cells are serum starved overnight in RPMI, then plated in RPMI (2×10^5 cells/well in 90 μL) into 96-well flat-bottom tissue culture treated plates (Corning, Corning, N.Y.), in the presence or absence of a concentration range of test compounds. Covered plates are incubated for 2 hours at 37° C., 5% CO2 then treated with or without 10 nM MCP-1(MYBioSource, San Diego, Calif.) for 15 minutes at 37° C., 5% CO2. Plates are centrifuged at 1600 RPM and supernatants are removed. Cells are lysed in Lysis Buffer (Cell Signaling, Danvers, Mass.) with Protease Inhibitor (Calbiochem/EMD, Germany), PMSF (Sigma, St Louis Mo.), HALTS (Thermo Fisher, Rockford, Ill.) for 30 min on wet ice. Cell lysates are frozen at −80 OC before testing. The lysates are tested in the Human/Mouse/Rat Phospho-RPS6 ELISA (R&D Systems, Inc. Minn, Minn.). The plate is measured using a microplate reader (SpectraMax M5—Molecular Devices, LLC Sunnyvale, Calif.) set to 450 nm with a wavelength correction of 540. IC50 determination is performed by fitting the curve of inhibitor percent inhibition versus the log of the inhibitor concentration using the GraphPad Prism 5.0 software.

IC50	Compound
< 0.1 µM	Cc1ccc(C(O)(C(N)=O)C(F)(F)F)cc1-c1cnc(N)c(C#Cc2ccc(CC#N)cc2)n1 (stereo not drawn) [Example 59, 2-(3-(5-amino-6-((4-(cyanomethyl)phenyl)ethynyl)pyrazin-2-yl)-4-methylphenyl)-3,3,3-trifluoro-2-hydroxypropanamide]
< 0.1 µM	COc1cc(C#Cc2nc(-c3cc(C(O)(C(N)=O)C(F)(F)F)ccc3C)cnc2N)cc(OC)c1 (stereo not drawn) [Example 60, 2-(3-(5-amino-6-((3,5-dimethoxyphenyl)ethynyl)pyrazin-2-yl)-4-methylphenyl)-3,3,3-trifluoro-2-hydroxypropanamide]
< 0.1 µM	Cc1ccc(C(O)(C(N)=O)C(F)(F)F)cc1-c1cnc(N)c(C#Cc2cccc(F)c2)n1 (stereo not drawn) [Example 61, 2-(3-(5-amino-6-((3-fluorophenyl)ethynyl)pyrazin-2-yl)-4-methylphenyl)-3,3,3-trifluoro-2-hydroxypropanamide]
< 0.1 µM	Cc1ccc(C(O)(C(N)=O)C(F)(F)F)cc1-c1cnc(N)c(C#CC(C)(O)C(C)C)n1 (stereo not drawn) [Example 62, 2-(3-(5-amino-6-(3-hydroxy-3,4-dimethylpent-1-ynyl)pyrazin-2-yl)-4-methylphenyl)-3,3,3-trifluoro-2-hydroxypropanamide]
< 0.1 µM	Cc1ccc(C(O)(C(N)=O)C(F)(F)F)cc1-c1cnc(N)c(C#CC2CCOCC2)n1 (stereo not drawn) [Example 63, 2-(3-(5-amino-6-((tetrahydro-2H-pyran-4-yl)ethynyl)pyrazin-2-yl)-4-methylphenyl)-3,3,3-trifluoro-2-hydroxypropanamide]
< 0.1 µM	Cc1ccc(C(O)(C(N)=O)C(F)(F)F)cc1-c1cnc(N)c(C#CC2(C)CCOCC2)n1 (stereo not drawn) [Example 64, 2-(3-(5-amino-6-((4-methyltetrahydro-2H-pyran-4-yl)ethynyl)pyrazin-2-yl)-4-methylphenyl)-3,3,3-trifluoro-2-hydroxypropanamide]
< 0.1 µM	Cc1ccc(C(O)(C(N)=O)C(F)(F)F)cc1-c1cnc(N)c(C#CC2(O)CCN(C)C2=O)n1 (stereo not drawn) [Example 65, 2-(3-(5-amino-6-((3-hydroxy-1-methyl-2-oxopyrrolidin-3-yl)ethynyl)pyrazin-2-yl)-4-methylphenyl)-3,3,3-trifluoro-2-]

Same assay, conditions: Homo sapiens; Table A3; THP-1 cells, 10 nM MCP-1; read-out: PI3Kγ_THP1_RPS6_ELISA IC50

IC50	Compound
< 0.1 µM	Cc1ccc(C(O)(C(N)=O)C(F)(F)F)cc1-c1cnc(N)c(-c2ccnn2C)n1 (stereo not drawn) [Example 69, 2-(3-(5-Amino-6-(1-methyl-1H-pyrazol-5-yl)pyrazin-2-yl)-4-methylphenyl)-3,3,3-trifluoro-2-hydroxypropanamide trifluoroacetate]
< 0.1 µM	Cc1ccc(C(O)(C(N)=O)C(F)(F)F)cc1-c1cnc(N)c(-n2cccn2)n1 (stereo not drawn) [Example 93, 2-(3-(5-Amino-6-(1H-pyrazol-1-yl)pyrazin-2-yl)-4-methylphenyl)-3,3,3-trifluoro-2-hydroxypropanamide]
< 0.1 µM	CNC(=O)C(O)(c1ccc(C)c(-c2cnc(N)c(-n3cncn3)n2)c1)C(F)(F)F (stereo not drawn) [Example 94, 2-(3-(5-Amino-6-(1H-1,2,4-triazol-1-yl)pyrazin-2-yl)-4-methylphenyl)-3,3,3-trifluoro-2-hydroxy-N-methylpropanamide trifluoroacetate]
< 0.5 µM	Cc1ccc(C(O)(C(N)=O)C(F)(F)F)cc1-c1cnc(N)c(-c2ccc(B(O)O)cc2)n1 (stereo not drawn) [Example 97, (4-(3-Amino-6-(5-(3-amino-1,1,1-trifluoro-2-hydroxy-3-oxopropan-2-yl)-2-methylphenyl)pyrazin-2-yl)phenyl)boronic acid]
< 0.1 µM	Cc1ccc(C(O)(C(N)=O)C(F)F)cc1-c1cnc(N)c(-c2ccnn2C)n1 (stereo not drawn) [Example 98, 2-(3-(5-Amino-6-(1-methyl-1H-pyrazol-5-yl)pyrazin-2-yl)-4-methylphenyl)-3,3-difluoro-2-hydroxypropanamide]
< 0.1 µM	Cc1ncc(-c2nc(-c3cc(C(O)(C(N)=O)C(F)F)ccc3C)cnc2N)o1 (stereo not drawn) [Example 100, 2-(3-(5-amino-6-(2-methyloxazol-5-yl)pyrazin-2-yl)-4-methylphenyl)-3,3-difluoro-2-hydroxypropanamide]
< 0.1 µM	Cc1ccc(C(O)(C(N)=O)C(F)F)cc1-c1cnc(N)c(-c2cnn(C)n2)n1 (stereo not drawn) [Example 101, 2-(3-(5-amino-6-(2-methyl-2H-1,2,3-triazol-4-yl)pyrazin-2-yl)-4-methylphenyl)-3,3-difluoro-2-hydroxypropanamide]
< 0.1 µM	Cc1ccc(C(O)(CNC=O)C(F)(F)F)cc1-c1cnc(N)c(-c2cnc(C3CC3)s2)n1 (stereo not drawn) [Example 102, N-(2-(3-(5-amino-6-(2-cyclopropylthiazol-5-yl)pyrazin-2-yl)-4-methylphenyl)-3,3,3-trifluoro-2-hydroxypropyl)formamide trifluoroacetate]
< 0.1 µM	CC(=O)NCC(O)(c1ccc(C)c(-c2cnc(N)c(-c3cnn(CC(F)(F)F)c3)n2)c1)C(F)(F)F (stereo not drawn) [Example 104, N-(2-(3-(5-amino-6-(1-(2,2,2-trifluoroethyl)-1H-pyrazol-4-yl)pyrazin-2-yl)-4-methylphenyl)-3,3,3-trifluoro-2-hydroxypropyl)acetamide trifluoroacetate]
< 0.1 µM	CC(=O)NCC(O)(c1ccc(C)c(-c2cnc(N)c(-c3cn[nH]c3)n2)c1)C(F)(F)F (stereo not drawn) [Example 105, N-(2-(3-(5-amino-6-(1H-pyrazol-4-yl)pyrazin-2-yl)-4-methylphenyl)-3,3,3-trifluoro-2-hydroxypropyl)acetamide trifluoroacetate]
< 0.1 µM	Cc1ccc(C(O)(C(N)=O)C(F)(F)F)cc1-c1cnc(N)c(C(=O)Nc2ccnn2C)n1 (stereo not drawn) [Example 106, 3-amino-6-(5-(3-amino-1,1,1-trifluoro-2-hydroxy-3-oxopropan-2-yl)-2-methylphenyl)-N-(1-methyl-1H-pyrazol-5-yl)pyrazine-2-carboxamide trifluoroacetate]

Compound	IC50
Cc1ccc(-c2nc(-c3cc(C(O)(C(N)=O)C(F)(F)F)ccc3C)cnc2N)cn1 (stereo not drawn) [Example 82, 2-(3-(5-amino-6-(6-methylpyridin-3-yl)pyrazin-2-yl)-4-methylphenyl)-3,3,3-trifluoro-2-hydroxypropanamide bistrifluoroacetate]	< 0.5 µM
Cc1ccc(C(O)(C(N)=O)C(F)(F)F)cc1-c1cnc(N)c(-c2ccc(C(F)(F)F)nc2)n1 (stereo not drawn) [Example 83, 2-(3-(5-amino-6-(6-(trifluoromethyl)pyridin-3-yl)pyrazin-2-yl)-4-methylphenyl)-3,3,3-trifluoro-2-hydroxypropanamide bistrifluoroacetate]	< 0.5 µM
Cc1ccc(C(O)(C(N)=O)C(F)(F)F)cc1-c1cnc(N)c(-c2cnc(C3CC3)s2)n1 (stereo not drawn) [Example 84, 2-(3-(5-amino-6-(2-cyclopropylthiazol-5-yl)pyrazin-2-yl)-4-methylphenyl)-3,3,3-trifluoro-2-hydroxypropanamide trifluoroacetate]	< 0.5 µM
Cc1ccc(C(O)(C(N)=O)C(F)(F)F)cc1-c1cnc(N)c(-c2ccnc(CO)c2)n1 (stereo not drawn) [Example 85, 2-(3-(5-amino-6-(2-(hydroxymethyl)pyridin-4-yl)pyrazin-2-yl)-4-methylphenyl)-3,3,3-trifluoro-2-hydroxypropanamide bistrifluoroacetate]	< 0.5 µM
Cc1ccc(C(O)(C(N)=O)C(F)(F)F)cc1-c1cnc(N)c(-c2ccc(CC#N)cc2)n1 (stereo not drawn) [Example 87, 2-(3-(5-amino-6-(4-(cyanomethyl)phenyl)pyrazin-2-yl)-4-methylphenyl)-3,3,3-trifluoro-2-hydroxypropanamide trifluoroacetate]	< 0.5 µM
Cc1ccc(C(O)(C(N)=O)C(F)(F)F)cc1-c1cnc(N)c(-c2ccc(CO)cc2)n1 (stereo not drawn) [Example 88, 2-(3-(5-amino-6-(4-(hydroxymethyl)phenyl)pyrazin-2-yl)-4-methylphenyl)-3,3,3-trifluoro-2-hydroxypropanamide trifluoroacetate]	< 0.5 µM
CNC(=O)c1ccc(-c2nc(-c3cc(C(O)(C(N)=O)C(F)(F)F)ccc3C)cnc2N)cc1 (stereo not drawn) [Example 89, 4-(3-amino-6-(5-(3-amino-1,1,1-trifluoro-2-hydroxy-3-oxopropan-2-yl)-2-methylphenyl)pyrazin-2-yl)-N-methylbenzamide trifluoroacetate]	< 0.5 µM

Same assay, conditions: Homo sapiens; Table A4; THP-1 cells, 10 nM MCP-1; cells given with + symbol; read-out: PI3Kγ_THP1_RPS6_ELISA IC50

IC50	Compound
< 0.1 µM	CC(=O)N1CCN(c2nc(-c3cc(C(O)(C(N)=O)C(F)(F)F)ccc3C)cnc2N)CC1 (stereo not drawn) [Example 114, 2-(3-(6-(4-acetylpiperazin-1-yl)-5-aminopyrazin-2-yl)-4-methylphenyl)-3,3,3-trifluoro-2-hydroxypropanamide trifluoroacetate]
< 0.1 µM	Cc1ccc([C@@](O)(C(N)=O)C(F)(F)F)cc1-c1cnc(N)c(N2CCN(C(=O)C3CC3)CC2)n1 [Example 115, (R)-2-(3-(5-amino-6-(4-(cyclopropanecarbonyl)piperazin-1-yl)pyrazin-2-yl)-4-methylphenyl)-3,3,3-trifluoro-2-hydroxypropanamide trifluoroacetate]

— patent US11046658B2, “Aminopyrazine derivatives as PI3K-γ inhibitors” (Incyte Corporation, priority 2018, dated 2021)
